Reference: US11384097B2, “Tetrahydroisoquinoline derivative, preparation method therefor and use thereof” (ZHEJIANG HISUN PHARMACEUTICAL CO., LTD., priority 2018, dated 2022)
Like-named read-outs stand apart in the source and are kept apart here.

Legend:
[1] = Pharmacokinetic study in SD rats (intravenous injection and intragastric administration); format: in vivo, Sprague Dawley (SD) rats; conditions: for bioavailability: Oral (10 mg/kg) vs Injection (1 mg/kg), read-out: Bioavailability F(%); for half-life: read-out: Half-life T1/2 (converted); for AUC(0-inf): read-out: area under curve AUC0-∞; for MRT: read-out: residence time MRT
Protocol: Test Example 3. Oral Pharmacokinetic Studies of the Compounds of the Present Disclosure in SD Rats
SD rats were used as the experimental animal. The rats were intravenously injected or intragastrically administered with the compounds of the present disclosure, and the drug concentrations in plasma at different times were tested by LC/MS/MS methods, so as to research the pharmacokinetic characteristics of compounds of present disclosure in rats.
Forty-eight healthy adult Sprague Dawley (SD) male rats were purchased from Weitong Lihua Laboratory Animal Technology Co., Ltd., production license number: 11400700271077.
48 healthy adult male SD rats were fasted overnight and administered via tail vein injection (at a dosage of 1 mg/kg) and intragastrically administered (at a dosage of 10 mg/kg), respectively. The rats were fed 4 h after the administration.
About 0.2 mL of blood was collected from the jugular vein before administering and at 0.083 hours, 0.25 hours, 0.5 hours, 1 hour, 2 hours, 4 hours, 8 hours, 12 hours, and 24 hours after administering, and heparin sodium was used for anticoagulation. Blood samples were collected and placed on ice, and plasma was separated by centrifugation (centrifugation conditions: 1500 g, 10 min). The collected plasma was stored at −40° C.-20° C. before analysis.
10 μL of plasma sample was taken and 400 μL of acetonitrile (containing internal standard working solution, comprising 5 ng/mL verapamil and 50 ng/mL glibenclamide) was added. The resulting mixture was vortexed for 10 minutes, and centrifuged at 3700 rpm for 10 minutes. 70 μL of the supernatant was taken, and […] of water was added. The resulting mixture was vortexed for 10 minutes, and 2 μL of the mixture was transferred to the LC-MS/MS for sample analysis.

[2] = Metabolic stability in rat liver microsomes; format: in vitro ADME; conditions: rat liver microsomes 0.5 mg/mL, 1 μM compound, NADPH 1 mM; read-out: Half-life/(T1/2, min)
Protocol: Test Example 2. Study on the Metabolic Stability of the Compound of the Present Disclosure in Rat Liver Microsomes
The purpose of this experiment is to study the metabolic stability of the compounds of the present disclosure in rat liver microsomes.
The compounds were incubated with rat liver microsomes and coenzyme NADPH was added to initiate the reaction. At 0, 5, 15, 30 and 60 minutes, 20 μL of incubation solution was taken out and transferred to 200 μL of acetonitrile containing internal standard to stop the reaction. After protein precipitation, the resulting mixture was centrifuged at 3,700 rpm for 10 minutes, and the supernatant was taken. The supernatant was diluted 1:1 with water and analyzed by LC-MS/MS method. According to the elimination half-life of the test compound in the incubation system, the in vitro intrinsic clearance rate was calculated. Midazolam was used as the internal reference compound and all incubations were performed in duplicate in parallel.
The peak area ratio analyte/internal standard (Aanalyte/AIS) is obtained by the instrument, and the remaining percentage (% Control) is calculated from the ratio Aanalyte/AIS in the non-zero time point sample to the zero time point sample. Ln (% Control) against incubation time is plotted and a linear fit was performed.

Human AT2R = target: T1, Human AT2R (Homo sapiens, UniProt P50052); assay: Antagonistic activity assay on human AT2R ligand binding (Tag-lite HTRF, Tb-labeled-AT2R cells); conditions: AT2 ligand binding, red agonist fluorescent ligand
T1 construct: Terbium (Tb) donor label on the receptor; From my own knowledge, the Tag-lite format usually uses an N-terminal SNAP-tag fusion labelled with Lumi4-Tb; expressed in transfected cells
T1 sequence (P50052 1-363): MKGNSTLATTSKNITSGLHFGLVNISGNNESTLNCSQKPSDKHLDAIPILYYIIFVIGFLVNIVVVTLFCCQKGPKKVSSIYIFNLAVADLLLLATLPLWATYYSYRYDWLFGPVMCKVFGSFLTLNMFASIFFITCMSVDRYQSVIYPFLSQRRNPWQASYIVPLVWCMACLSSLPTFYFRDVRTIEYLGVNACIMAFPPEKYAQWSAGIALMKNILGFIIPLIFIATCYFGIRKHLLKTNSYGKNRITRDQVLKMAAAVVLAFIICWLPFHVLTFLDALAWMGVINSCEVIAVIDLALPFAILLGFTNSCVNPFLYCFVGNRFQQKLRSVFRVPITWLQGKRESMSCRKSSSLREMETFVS
Protocol: Antagonistic Activity Assay of the Compound of the Present Disclosure on Human AT2R Ligand Binding
According to standard methods, all compounds were dissolved in dimethyl sulfoxide and prepared as 10 mM stock solutions.
(3) Each of the diluted compound in step (2) was transferred to a working plate (3657, Corning) at 160 nL/well, at 200 g, at room temperature for 1 minute;
(4) 40 μl 1×TLB was added to the above working plate, and it was centrifuged at 200 g (centrifugal force) at room temperature for 1 minute, shook on a shaker for 15 minutes to mix well, and centrifuged at 200 g (working concentration of the compound was 4×) at room temperature for 1 minute for later use;
(6) 5 mL 1×TLB was taken in a 15 mL centrifuge tube;
(7) a Tb-labeled-AT2R cells were frozen and thawed in a 37° C. water bath until the ice was completely melted (1-2 minutes);
(8) The frozen and thawed cells were rapidly transferred to the 1×TLB in step (6), and the resulting solution was mixed gently, and then centrifuged at 1200 g at room temperature for 5 minutes;
After being mixed well, the resulting mixture was placed at room temperature for late use;
(11) The reaction plate was centrifuged at 200 g at room temperature for 1 minute, and stood for 1 hour at room temperature of 25° C., and then it was centrifuged at 200 g at room temperature for 1 minute. The data was collected using Envision HTRF microplate reader, and IC50 was calculated using a nonlinear fitting formula.

[3] = male, Sprague-Dawley, rat, plasma
[4] = male, Sprague-Dawley, rat, plasma, Oral (10 mg/kg)
[5] = male, Sprague-Dawley, rat, plasma, iv, Injection (1 mg/kg), tail vein

Structure (SMILES) | Half-life T1/2 ([1]; Injection (1 mg/kg), tail vein) | bioavailability [1, 3] | half-life [1, 4] | AUC(0-inf) [1, 4] | MRT [1, 4] | AUC(0-inf) [1, 5] | MRT [1, 5] | half-life at 1 µM [2] | IC50 (Human AT2R) | Cmax ([1]; male, Sprague-Dawley, rat, plasma, Oral (10 mg/kg), read-out: blood concentration Cmax) | half-life [1, 5]
COc1ccc2c(c1OCc1ccccc1)C[C@@H](C(=O)O)N(c1nc3ccc(C#N)cc3o1)C2 [Example 15, (S)-5-(Benzyloxy)-2-(6-cyanobenzo[d]oxazol-2-yl)-6-methoxy-1,2,3,4-tetrahydroisoquinoline-3-carboxylic acid] | 4.2 ± 1.2 h | 47.3% | 4.7 ± 1.3 h | 45400 ± 11900 ng·h/mL | 6.3 ± 1.1 h | 9590 ± 579 ng·h/mL | 2 ± 0.6 h | 317 min | 36 nM | – | –
COc1ccc(COc2c(OC)ccc3c2C[C@@H](C(=O)O)N(c2nc4ccc(F)cc4o2)C3)nc1 [Example 36, (S)-2-(6-fluorobenzo[d]oxazol-2-yl)-6-methoxy-5-((5-methoxypyridin-2-yl)methoxy)-1,2,3,4-tetrahydroisoquinoline-3-carboxylic acid] | – | 53.7% | 3.8 ± 1 h | 24700 ± 9400 ng·h/mL | 5.4 ± 1.3 h | 4600 ± 240 ng·h/mL | 2.3 ± 0.6 h | 768 min | 10 nM | 4740 ± 662 ng/mL | 4.8 ± 2.6 h
